{"source": "patent US8106197B2", "about": "“Aminoheteroaryl compounds as protein kinase inhibitors” (Pfizer Inc., priority 2003, dated 2012)"}
{"molecular_target": "T1, HGFR (Homo sapiens, UniProt P08581)", "T1 construct": "purchased Upstate 14-526", "T1 sequence (P08581 974-1390 limits assumed)": "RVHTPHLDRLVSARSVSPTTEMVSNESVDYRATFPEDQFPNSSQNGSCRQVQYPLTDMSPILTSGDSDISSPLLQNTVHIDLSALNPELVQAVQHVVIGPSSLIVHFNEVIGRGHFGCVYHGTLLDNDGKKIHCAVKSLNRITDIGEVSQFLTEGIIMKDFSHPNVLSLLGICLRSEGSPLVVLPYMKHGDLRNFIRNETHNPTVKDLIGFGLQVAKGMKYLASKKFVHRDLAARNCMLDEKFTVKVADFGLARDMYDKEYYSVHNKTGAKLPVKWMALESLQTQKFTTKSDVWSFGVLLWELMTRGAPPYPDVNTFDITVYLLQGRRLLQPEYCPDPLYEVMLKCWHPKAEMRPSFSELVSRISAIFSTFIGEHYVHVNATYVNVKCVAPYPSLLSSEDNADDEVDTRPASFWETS", "experiment": "HGFR continuous-coupled spectrophotometric assay", "assay_type": "biochemical", "conditions": "not given"}
{"compound": "Nc1ncc(-c2ccc(C(=O)N3CCC(N4CCCC4)CC3)cc2)cc1OCc1ccc(F)cc1F", "% inhibition": "% inhibition = 18"}
{"compound": "Nc1ncc(-c2ccc(C(=O)N3CCC(N4CCCC4)CC3)cc2)cc1OCc1nc2ccccc2s1", "% inhibition": "% inhibition = 17"}
{"compound": "CCN(CC)c1ccc(NC(=O)c2ccc(COc3cc(-c4ccc(C(=O)N5CCC(N6CCCC6)CC5)cc4)cnc3N)cc2)cc1", "% inhibition": "% inhibition = 47"}
{"compound": "CC(C)Oc1cc(C(F)(F)F)nc2ccc(COc3cc(-c4ccc(C(=O)N5CCC(N6CCCC6)CC5)cc4)cnc3N)cc12", "% inhibition": "% inhibition = 19"}
{"compound": "Cc1cccc(COc2cc(-c3ccc(C(=O)N4CCC(N5CCCC5)CC4)cc3)cnc2N)n1", "% inhibition": "% inhibition = 17"}
{"compound": "Nc1ncc(-c2ccc(C(=O)N3CCC(N4CCCC4)CC3)cc2)cc1OCc1ncccn1", "% inhibition": "% inhibition = 9"}
{"compound": "COCOc1ccc(S(=O)(=O)c2ccc(COc3cc(-c4ccc(C(=O)N5CCC(N6CCCC6)CC5)cc4)cnc3N)cc2)cc1", "% inhibition": "% inhibition = 18"}
{"compound": "CC(Oc1nc(-c2ccc(C(=O)N3CCC[C@H]3CN3CCCC3)cc2)cnc1N)c1c(Cl)cccc1Cl", "note": "(stereo partly shown)", "% inhibition": "% inhibition = 14"}
{"compound": "Nc1ncc(-c2ccc(C(=O)N3CCC(N4CCCC4)CC3)cc2)cc1OCc1ccc(C(=O)NCCc2ccccn2)cc1", "% inhibition": "% inhibition = 11"}
{"compound": "Nc1ncc(-c2ccc(C(=O)N3CCC(N4CCCC4)CC3)cc2)cc1OCc1ccc(S(=O)(=O)c2ccc(F)cc2)cc1", "% inhibition": "% inhibition = 13"}
{"compound": "Nc1ncc(-c2ccc(C(=O)N3CCC(N4CCCC4)CC3)cc2)cc1OCc1cccc2cccnc12", "% inhibition": "% inhibition = 22"}
{"compound": "COC(=O)c1ccc(COc2cc(-c3ccc(C(=O)N4CCC(N5CCCC5)CC4)cc3)cnc2N)c(OC)c1", "% inhibition": "% inhibition = 15"}
{"compound": "Nc1ncc(-c2ccc(C(=O)N3CCC(N4CCCC4)CC3)cc2)cc1OCc1nc(N)c2ccccc2n1", "% inhibition": "% inhibition = 15"}
{"compound": "Nc1ncc(-c2ccc(C(=O)N3CCC(N4CCCC4)CC3)cc2)cc1OCc1ccc(OC(F)(F)F)cc1", "% inhibition": "% inhibition = 20"}
{"compound": "Nc1ncc(-c2ccc(C(=O)N3CCC(N4CCCC4)CC3)cc2)cc1OCc1csc2ccc(Cl)cc12", "% inhibition": "% inhibition = 37"}
{"compound": "Nc1ncc(-c2ccc(C(=O)N3CCC(N4CCCC4)CC3)cc2)cc1OCc1nc(-c2ccc(C(=O)N3CCCC3)cc2)no1", "% inhibition": "% inhibition = 11"}
{"compound": "Nc1ncc(-c2ccc(C(=O)N3CCC(N4CCCC4)CC3)cc2)cc1OCc1cc(-c2ccccc2)no1", "% inhibition": "% inhibition = 23"}
{"compound": "CCN1CCCC1CNC(=O)c1cccc(COc2cc(-c3ccc(C(=O)N4CCC(N5CCCC5)CC4)cc3)cnc2N)c1", "note": "(stereo not shown)", "% inhibition": "% inhibition = 10"}
{"compound": "Nc1ncc(-c2ccc(C(=O)N3CCC(N4CCCC4)CC3)cc2)cc1OCc1ccc(C(F)(F)F)c(F)c1", "% inhibition": "% inhibition = 24"}
{"compound": "Nc1ncc(-c2ccc(C(=O)N3CCC(N4CCCC4)CC3)cc2)cc1OCc1c(F)ccc(F)c1F", "% inhibition": "% inhibition = 30"}
{"compound": "COc1cccc(COc2cc(-c3ccc(C(=O)N4CCC(N5CCCC5)CC4)cc3)cnc2N)c1OC", "% inhibition": "% inhibition = 23"}
{"compound": "Nc1nc(COc2cc(-c3ccc(C(=O)N4CCC(N5CCCC5)CC4)cc3)cnc2N)nc(Nc2ccccc2)n1", "% inhibition": "% inhibition = 9"}
{"compound": "Nc1ncc(-c2ccc(C(=O)N3CCC(N4CCCC4)CC3)cc2)cc1OCc1nc(CS(=O)(=O)c2ccccn2)no1", "% inhibition": "% inhibition = 9"}
{"compound": "Nc1ncc(-c2ccc(C(=O)N3CCC(N4CCCC4)CC3)cc2)cc1OCc1ccc(S(=O)(=O)N2CCOCC2)cc1", "% inhibition": "% inhibition = 14"}
{"compound": "CC(C)NC(=O)c1ccc(-c2noc(COc3cc(-c4ccc(C(=O)N5CCC(N6CCCC6)CC5)cc4)cnc3N)n2)cc1", "% inhibition": "% inhibition = 18"}
{"molecular_target": "T1, HGFR", "experiment": "HGFR continuous-coupled spectrophotometric assay", "assay_type": "biochemical", "conditions": "Table 3; Ki(μM) or I(%)", "units": {"Ki": "µM"}}
{"compound": "CC(Oc1cc(-c2ccccc2F)cnc1N)c1c(Cl)ccc(F)c1Cl", "note": "(stereo not shown) [Example I-563, 3-[1-(2,6-Dichloro-3-fluoro-phenyl)-ethoxy]-5-(2-fluoro-phenyl)-pyridin-2-ylamine]", "Ki": 0.433}
{"molecular_target": "T1, HGFR", "experiment": "HGFR continuous-coupled spectrophotometric assay", "assay_type": "biochemical", "conditions": "Table 3; Ki(μM) or I(%); test concentration not given", "units": {"I(%)": "%"}}
{"compound": "Cc1cc(C)c(COc2cc(-c3ccc(C(=O)N4CCC(N5CCCC5)CC4)cc3)cnc2N)c(C)c1", "note": "[Example I-653, {4-[6-Amino-5-(2,4,6-trimethyl-benzyloxy)-pyridin-3-yl]-phenyl}-(4-pyrrolidin-1-yl-piperidin-1-yl)-methanone]", "I(%)": 2}
{"compound": "CC(Oc1cc(-c2ccccc2CO)cnc1N)c1c(Cl)ccc(F)c1Cl", "note": "(stereo not shown) [Example I-564, (2-{6-Amino-5-[1-(2,6-dichloro-3 fluoro-phenyl)-ethoxy]pyridin-3-yl}-phenyl)-methanol]", "I(%)": 21}
{"compound": "COC(=O)c1cccc(COc2cc(-c3ccc(C(=O)N4CCC(N5CCCC5)CC4)cc3)cnc2N)c1", "note": "[Example I-625, 3-{2-Amino-5-[4-(4-pyrrolidin-1-yl-piperidzne-1-carbonyl)-phenyl]-pyridin-3-yloxymethyl)-benzoic acid methyl ester]", "I(%)": 6}
{"compound": "CC(Oc1cc(-c2ccc(C(=O)N3CCC(N4CCCC4)CC3)cc2)cnc1N)c1ccc(C(=O)NCCc2cccc(O)c2)cc1", "note": "(stereo not shown) [Example I-629, 4-(1-{2-Amino-5-[4-(4-pyrrolidin-1-yl-piperidine-1-carbonyl)-phenyl]-pyridin-3-yloxy}-ethyl)-[2-(3-hydroxy-phenyl)-ethyl]-benzamide]", "I(%)": 7}
{"molecular_target": "T1, HGFR", "experiment": "HGFR continuous-coupled spectrophotometric assay", "assay_type": "biochemical", "conditions": "Table 5; percent c-MET inhibition at 50 nM", "units": {"inhibition at 0.05 µM": "%"}}
{"compound": "COC(=O)C(CO)NC(=O)c1ccc(-c2cnc(N)c(OC(C)c3c(Cl)ccc(F)c3Cl)c2)cc1", "note": "(stereo not shown)", "inhibition at 0.05 µM": 81}
{"compound": "CCC(C)NC(=O)c1ccc(-c2cnc(N)c(OC(C)c3c(Cl)ccc(F)c3Cl)c2)cc1", "note": "(stereo not shown)", "inhibition at 0.05 µM": 64}
{"compound": "CC(Oc1cc(-c2ccc(C(=O)NC(CO)C(C)C)cc2)cnc1N)c1c(Cl)ccc(F)c1Cl", "note": "(stereo not shown)", "inhibition at 0.05 µM": 65}
{"molecular_target": "T1, HGFR", "experiment": "HGFR continuous-coupled spectrophotometric assay", "assay_type": "biochemical", "conditions": "Table 5; percent c-MET inhibition at 50 nM; 0.05 µM"}
{"compound": "CC(Oc1cc(-c2ccc(C(=O)N[C@H](C)C3CCCCC3)cc2)cnc1N)c1c(Cl)ccc(F)c1Cl", "note": "(stereo partly shown) [drawing 1071]", "% inhibition": "% inhibition = 54"}
{"molecular_target": "T1, HGFR", "experiment": "HGFR continuous-coupled spectrophotometric assay", "assay_type": "biochemical", "conditions": "Table 6; percent c-MET inhibition at 1 μM; read-out: % inhibition", "units": {"inhibition at 1 µM": "%"}}
{"compound": "CC(O)CNC(=O)c1cnc(N)c(OCc2c(Cl)cccc2Cl)c1", "note": "(stereo not shown)", "inhibition at 1 µM": 49}
{"compound": "CC(NC(=O)c1cnc(N)c(OCc2c(Cl)cccc2Cl)c1)c1ccc(O)cc1", "note": "(stereo not shown)", "inhibition at 1 µM": 36}
{"compound": "Nc1ncc(C(=O)NCCCO)cc1OCc1c(Cl)cccc1Cl", "inhibition at 1 µM": 26}
{"compound": "Nc1ncc(C(=O)NCC2=CSC3=NCCN23)cc1OCc1c(Cl)cccc1Cl", "inhibition at 1 µM": 99}
{"compound": "COCCNC(=O)C1CCCN(C(=O)c2cnc(N)c(OCc3c(Cl)cccc3Cl)c2)C1", "note": "(stereo not shown)", "inhibition at 1 µM": 20}
{"compound": "CC(C)(CO)CNC(=O)c1cnc(N)c(OCc2c(Cl)cccc2Cl)c1", "inhibition at 1 µM": 39}
{"compound": "CCC(CC)CN1CCC2(CC1)CC(NC(=O)c1cnc(N)c(OCc3c(Cl)cccc3Cl)c1)CO2", "note": "(stereo not shown)", "inhibition at 1 µM": 74}
{"compound": "N#CCCN1CCN(C(=O)c2cnc(N)c(OCc3c(Cl)cccc3Cl)c2)CC1", "inhibition at 1 µM": 19}
{"compound": "Cc1ccn2cc(CNC(=O)c3cnc(N)c(OCc4c(Cl)cccc4Cl)c3)nc2n1", "inhibition at 1 µM": 45}
{"compound": "Nc1ncc(C(=O)NC2CCSC2=O)cc1OCc1c(Cl)cccc1Cl", "note": "(stereo not shown)", "inhibition at 1 µM": 35}
{"compound": "COCCN1CCN(C(=O)c2cnc(N)c(OCc3c(Cl)cccc3Cl)c2)CC1", "inhibition at 1 µM": 27}
{"compound": "CC(O)CCNC(=O)c1cnc(N)c(OCc2c(Cl)cccc2Cl)c1", "note": "(stereo not shown)", "inhibition at 1 µM": 35}
{"compound": "Nc1ncc(C(=O)NCc2cn3cc(Cl)ccc3n2)cc1OCc1c(Cl)cccc1Cl", "inhibition at 1 µM": 38}
{"compound": "CN(C)CC(C)(C)CNC(=O)c1cnc(N)c(OCc2c(Cl)cccc2Cl)c1", "inhibition at 1 µM": 38}
{"compound": "CC(C)(O)c1ccc(CNC(=O)c2cnc(N)c(OCc3c(Cl)cccc3Cl)c2)cc1", "inhibition at 1 µM": 24}
{"compound": "NC(=O)C1CCCN(C(=O)c2cnc(N)c(OCc3c(Cl)cccc3Cl)c2)C1", "note": "(stereo not shown)", "inhibition at 1 µM": 39}
{"compound": "Nc1ncc(C(=O)NCCC2CCOCC2)cc1OCc1c(Cl)cccc1Cl", "inhibition at 1 µM": 31}
{"compound": "Nc1ncc(C(=O)NCc2noc(C(=O)N3CCC(CO)CC3)n2)cc1OCc1c(Cl)cccc1Cl", "inhibition at 1 µM": 26}
{"compound": "Nc1ncc(C(=O)NCc2ccc(OC(F)(F)F)cc2)cc1OCc1c(Cl)cccc1Cl", "inhibition at 1 µM": 24}
{"compound": "Nc1ncc(C(=O)NC2CCCNC2=O)cc1OCc1c(Cl)cccc1Cl", "note": "(stereo not shown)", "inhibition at 1 µM": 16}
{"compound": "CCCOCCNC(=O)c1cnc(N)c(OCc2c(Cl)cccc2Cl)c1", "inhibition at 1 µM": 45}
{"compound": "Nc1ncc(C(=O)N2CCS(=O)(=O)CC2)cc1OCc1c(Cl)cccc1Cl", "inhibition at 1 µM": 10}
{"compound": "Nc1ncc(C(=O)N2CCC(C(=O)c3ccccc3)CC2)cc1OCc1c(Cl)cccc1Cl", "inhibition at 1 µM": 32}
{"molecular_target": "T2, GST fusion protein containing the Met kinase domain (Homo sapiens, UniProt P08581)", "T2 construct": "Purified GST fusion protein containing the Met kinase domain, SUGEN, Inc", "T2 sequence (P08581 1078-1345 limits assumed)": "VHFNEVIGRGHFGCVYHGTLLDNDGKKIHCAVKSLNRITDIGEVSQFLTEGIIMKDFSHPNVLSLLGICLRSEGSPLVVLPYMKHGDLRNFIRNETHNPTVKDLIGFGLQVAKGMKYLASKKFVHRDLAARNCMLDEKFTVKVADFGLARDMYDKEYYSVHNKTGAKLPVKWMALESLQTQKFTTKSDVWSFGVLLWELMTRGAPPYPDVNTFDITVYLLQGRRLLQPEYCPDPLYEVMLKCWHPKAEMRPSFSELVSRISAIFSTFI", "experiment": "MET transphosphorylation assay (ELISA, poly(glu-tyr) substrate)", "assay_type": "biochemical", "conditions": "not given", "units": {"IC50": "µM"}}
{"compound": "Nc1ncc(-c2ccccc2)cc1OCc1c(Cl)cccc1Cl", "note": "[Example I-9, 3-(2,6-Dichloro-benzyloxy)-5-phenyl-pyridin-2-ylamine]", "IC50": 3.9}
